ChEMBL document CHEMBL5303761, “Data for DCP probe BI-3231” (2023)

Assays:
[1] = molecular target: Alpha-2C adrenergic receptor (Homo sapiens) (UniProt P18825); details: Compound concentration 10.0 uM
[2] = molecular target: Delta-type opioid receptor (Homo sapiens) (UniProt P41143); details: Compound concentration 10.0 uM
[3] = molecular target: Kappa-type opioid receptor (Homo sapiens) (UniProt P41145); details: Compound concentration 10.0 uM
[4] = molecular target: Histamine H2 receptor (Homo sapiens) (UniProt P25021); test: H2/APT/HS Eurofins SafetyScreen44 (BI); details: filed as antagonist, Compound concentration 10.0 uM
[5] = molecular target: Glucocorticoid receptor (Homo sapiens) (UniProt P04150); test: GCORTICOID/H Eurofins SafetyScreen44 (BI); details: Compound concentration 10.0 uM
Glucocorticoid receptor (Homo sapiens), sequence (P04150 whole entry): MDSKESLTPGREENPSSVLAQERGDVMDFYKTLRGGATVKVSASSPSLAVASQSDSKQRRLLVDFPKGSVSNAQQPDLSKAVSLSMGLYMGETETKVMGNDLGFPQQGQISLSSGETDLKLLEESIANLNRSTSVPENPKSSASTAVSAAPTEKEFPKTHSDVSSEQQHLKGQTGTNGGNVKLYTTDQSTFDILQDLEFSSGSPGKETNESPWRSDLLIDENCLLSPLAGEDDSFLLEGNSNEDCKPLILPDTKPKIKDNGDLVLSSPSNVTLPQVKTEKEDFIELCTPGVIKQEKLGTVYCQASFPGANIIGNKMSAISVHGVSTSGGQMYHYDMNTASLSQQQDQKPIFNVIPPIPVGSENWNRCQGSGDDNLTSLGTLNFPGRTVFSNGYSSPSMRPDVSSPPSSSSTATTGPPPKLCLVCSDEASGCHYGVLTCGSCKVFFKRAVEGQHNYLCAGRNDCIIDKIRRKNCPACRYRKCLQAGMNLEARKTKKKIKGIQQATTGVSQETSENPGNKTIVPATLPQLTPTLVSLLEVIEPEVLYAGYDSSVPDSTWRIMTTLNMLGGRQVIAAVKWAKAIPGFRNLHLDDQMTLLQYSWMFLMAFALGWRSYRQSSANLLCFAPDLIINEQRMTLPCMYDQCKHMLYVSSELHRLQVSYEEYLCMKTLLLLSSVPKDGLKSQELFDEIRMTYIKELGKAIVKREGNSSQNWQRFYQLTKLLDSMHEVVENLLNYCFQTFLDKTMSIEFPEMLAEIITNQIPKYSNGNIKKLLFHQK

[6] = molecular target: 5-hydroxytryptamine receptor 2B (Homo sapiens) (UniProt P41595); test: 5HT2B/H AG Eurofins SafetyScreen44 (BI); details: filed as agonist, Compound concentration 10.0 uM
[7] = molecular target: 17-beta-hydroxysteroid dehydrogenase 13 (Mus musculus, UniProt Q8VCR2); test: Enzymatic assay (mHSD17B13); assay type: functional
hERG (KCNH2) = hERG (KCNH2) (Homo sapiens, UniProt Q12809); test: HERG_DOFETILIDE Eurofins SafetyScreen44 (BI); details: probe [3H]dofetilide, compound concentration 10 uM, read-out: % Ctrl
[8] = molecular target: voltage-gated Na+ channel (site 2) (Rattus norvegicus, UniProt F1LQQ7+O08562+O88420+O88457+P04774+P04775+P08104+P15389+P15390+Q62968); test: NA+/SITE2/R Eurofins SafetyScreen44 (BI); assay type: protein assay; details: rat brain, probe [3H]batrachotoxinin, compound concentration 10 uM, read-out: % Ctrl
[9] = molecular target: D(3) dopamine receptor (Homo sapiens) (UniProt P35462); details: Compound concentration 10.0 uM
D(3) dopamine receptor (Homo sapiens), sequence (P35462 whole entry): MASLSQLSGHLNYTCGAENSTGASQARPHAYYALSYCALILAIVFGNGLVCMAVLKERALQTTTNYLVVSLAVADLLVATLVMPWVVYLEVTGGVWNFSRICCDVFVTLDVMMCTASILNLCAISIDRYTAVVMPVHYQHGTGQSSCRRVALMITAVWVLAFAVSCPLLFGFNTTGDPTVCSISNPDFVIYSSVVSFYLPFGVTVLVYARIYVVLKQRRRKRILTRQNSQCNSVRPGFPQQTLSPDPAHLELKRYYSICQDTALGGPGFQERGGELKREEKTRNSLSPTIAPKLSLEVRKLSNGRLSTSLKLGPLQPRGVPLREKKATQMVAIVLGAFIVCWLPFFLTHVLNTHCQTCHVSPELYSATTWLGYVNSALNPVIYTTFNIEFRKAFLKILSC

[10] = molecular target: Sigma intracellular receptor 2 (Homo sapiens) (UniProt Q5BJF2); details: Compound concentration 10.0 uM
Sigma intracellular receptor 2 (Homo sapiens), sequence (Q5BJF2 whole entry): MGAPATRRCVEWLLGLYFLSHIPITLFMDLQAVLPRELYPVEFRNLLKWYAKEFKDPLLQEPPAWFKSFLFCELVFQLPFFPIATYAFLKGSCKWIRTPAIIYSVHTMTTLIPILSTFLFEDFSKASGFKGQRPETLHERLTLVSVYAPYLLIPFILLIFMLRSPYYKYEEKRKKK

[11] = molecular target: Beta-2 adrenergic receptor (Homo sapiens) (UniProt P07550); details: Compound concentration 10.0 uM
Beta-2 adrenergic receptor (Homo sapiens), sequence (P07550 whole entry, looked up): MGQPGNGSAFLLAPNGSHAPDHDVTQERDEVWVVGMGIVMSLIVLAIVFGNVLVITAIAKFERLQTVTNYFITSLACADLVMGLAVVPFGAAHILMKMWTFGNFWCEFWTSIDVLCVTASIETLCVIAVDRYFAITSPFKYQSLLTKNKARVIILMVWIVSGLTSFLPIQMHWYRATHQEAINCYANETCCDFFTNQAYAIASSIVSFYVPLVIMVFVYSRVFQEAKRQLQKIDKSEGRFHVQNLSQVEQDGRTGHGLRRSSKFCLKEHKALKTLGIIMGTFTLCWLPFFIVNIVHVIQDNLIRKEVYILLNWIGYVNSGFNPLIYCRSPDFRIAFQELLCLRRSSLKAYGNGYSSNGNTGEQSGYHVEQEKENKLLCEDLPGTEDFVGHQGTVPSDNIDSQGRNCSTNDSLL

[12] = molecular target: Beta-1 adrenergic receptor (Homo sapiens) (UniProt P08588); details: Compound concentration 10.0 uM
[13] = molecular target: 3',5'-cyclic-AMP phosphodiesterase 4D (Homo sapiens) (UniProt Q08499); test: PDE4D2 Eurofins SafetyScreen44 (BI); details: Compound concentration 10.0 uM
[14] = molecular target: Sodium-dependent noradrenaline transporter (Homo sapiens) (UniProt P23975); test: NEUP/H Eurofins SafetyScreen44 (BI); details: Compound concentration 10.0 uM
Sodium-dependent noradrenaline transporter (Homo sapiens), sequence (P23975 whole entry): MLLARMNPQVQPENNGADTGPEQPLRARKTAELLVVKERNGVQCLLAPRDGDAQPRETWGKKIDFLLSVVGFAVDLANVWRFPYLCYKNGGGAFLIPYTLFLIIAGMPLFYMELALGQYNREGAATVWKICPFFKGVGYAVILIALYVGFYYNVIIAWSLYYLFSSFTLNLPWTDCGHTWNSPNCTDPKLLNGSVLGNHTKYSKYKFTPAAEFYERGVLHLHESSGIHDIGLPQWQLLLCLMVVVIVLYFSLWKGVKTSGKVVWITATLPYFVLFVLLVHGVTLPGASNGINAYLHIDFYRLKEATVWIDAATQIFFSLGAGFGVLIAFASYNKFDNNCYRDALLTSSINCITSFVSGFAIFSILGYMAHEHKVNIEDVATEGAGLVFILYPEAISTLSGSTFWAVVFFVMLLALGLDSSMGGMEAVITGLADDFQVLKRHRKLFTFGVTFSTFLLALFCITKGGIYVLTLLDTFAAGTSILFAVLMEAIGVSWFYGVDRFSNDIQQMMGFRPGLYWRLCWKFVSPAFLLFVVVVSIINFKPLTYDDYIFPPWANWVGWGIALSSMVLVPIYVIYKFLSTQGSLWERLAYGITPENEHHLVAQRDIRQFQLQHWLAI

[15] = molecular target: Estradiol 17-beta-dehydrogenase 11 (Homo sapiens, UniProt Q8NBQ5); test: Enzymatic assay (hHSD17B11); assay type: functional
MAO-A = MAO-A (Rattus norvegicus, UniProt P21396); test: MAO-A_ANTAG Eurofins SafetyScreen44 (BI); parameters: scale not given: the % may be the effect or the level left; details: compound concentration 10 uM, read-out: % Ctrl
[16] = molecular target: Beta-3 adrenergic receptor (Homo sapiens) (UniProt P13945); details: Compound concentration 10.0 uM
Beta-3 adrenergic receptor (Homo sapiens), sequence (P13945 whole entry, looked up): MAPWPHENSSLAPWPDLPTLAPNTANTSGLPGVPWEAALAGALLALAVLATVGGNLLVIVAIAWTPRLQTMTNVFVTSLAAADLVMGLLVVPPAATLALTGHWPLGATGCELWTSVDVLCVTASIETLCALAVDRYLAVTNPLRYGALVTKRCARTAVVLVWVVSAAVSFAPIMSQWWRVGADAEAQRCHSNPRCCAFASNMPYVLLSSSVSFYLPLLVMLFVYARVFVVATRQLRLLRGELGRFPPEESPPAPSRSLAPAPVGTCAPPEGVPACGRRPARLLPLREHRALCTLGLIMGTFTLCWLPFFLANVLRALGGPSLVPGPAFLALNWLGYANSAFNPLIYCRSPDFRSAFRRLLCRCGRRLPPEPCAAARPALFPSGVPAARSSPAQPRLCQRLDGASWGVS

[17] = molecular target: D(1B) dopamine receptor (Homo sapiens) (UniProt P21918); details: Compound concentration 10.0 uM
D(1B) dopamine receptor (Homo sapiens), sequence (P21918 whole entry): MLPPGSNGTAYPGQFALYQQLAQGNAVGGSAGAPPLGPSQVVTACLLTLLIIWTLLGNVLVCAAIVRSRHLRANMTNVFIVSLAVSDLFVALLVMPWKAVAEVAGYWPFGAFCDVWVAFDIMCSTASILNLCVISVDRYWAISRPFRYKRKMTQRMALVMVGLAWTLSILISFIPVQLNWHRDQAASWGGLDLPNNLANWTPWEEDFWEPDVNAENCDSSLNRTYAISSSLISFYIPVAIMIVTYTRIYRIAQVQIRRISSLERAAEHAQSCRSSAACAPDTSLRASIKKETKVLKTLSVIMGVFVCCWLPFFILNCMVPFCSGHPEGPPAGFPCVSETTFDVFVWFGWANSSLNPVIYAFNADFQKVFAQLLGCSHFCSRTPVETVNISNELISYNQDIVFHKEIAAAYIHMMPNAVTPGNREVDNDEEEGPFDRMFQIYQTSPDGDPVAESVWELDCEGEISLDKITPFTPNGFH

[18] = molecular target: D(2) dopamine receptor (Homo sapiens) (UniProt P14416); details: Compound concentration 10.0 uM
[19] = molecular target: T1, Muscarinic acetylcholine receptor M1 (Homo sapiens) (UniProt P11229); details: Compound concentration 10.0 uM
T1 sequence (whole entry): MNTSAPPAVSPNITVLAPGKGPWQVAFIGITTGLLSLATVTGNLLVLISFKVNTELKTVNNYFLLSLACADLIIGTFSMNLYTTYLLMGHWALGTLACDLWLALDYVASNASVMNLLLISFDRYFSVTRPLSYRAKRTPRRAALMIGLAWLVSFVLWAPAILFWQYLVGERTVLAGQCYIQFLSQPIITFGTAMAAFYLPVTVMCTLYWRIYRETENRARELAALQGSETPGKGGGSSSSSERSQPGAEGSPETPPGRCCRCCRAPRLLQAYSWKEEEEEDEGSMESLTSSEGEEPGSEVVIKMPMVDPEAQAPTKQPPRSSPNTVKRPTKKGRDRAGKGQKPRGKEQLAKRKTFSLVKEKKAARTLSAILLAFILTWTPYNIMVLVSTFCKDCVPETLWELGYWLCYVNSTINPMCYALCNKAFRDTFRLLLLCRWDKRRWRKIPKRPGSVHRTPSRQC

[20] = molecular target: 5-hydroxytryptamine receptor 2C (Homo sapiens) (UniProt P28335); details: Compound concentration 10.0 uM
[21] = molecular target: 5-hydroxytryptamine receptor 6 (Homo sapiens) (UniProt P50406); details: Compound concentration 10.0 uM
5-hydroxytryptamine receptor 6 (Homo sapiens), sequence (P50406 whole entry): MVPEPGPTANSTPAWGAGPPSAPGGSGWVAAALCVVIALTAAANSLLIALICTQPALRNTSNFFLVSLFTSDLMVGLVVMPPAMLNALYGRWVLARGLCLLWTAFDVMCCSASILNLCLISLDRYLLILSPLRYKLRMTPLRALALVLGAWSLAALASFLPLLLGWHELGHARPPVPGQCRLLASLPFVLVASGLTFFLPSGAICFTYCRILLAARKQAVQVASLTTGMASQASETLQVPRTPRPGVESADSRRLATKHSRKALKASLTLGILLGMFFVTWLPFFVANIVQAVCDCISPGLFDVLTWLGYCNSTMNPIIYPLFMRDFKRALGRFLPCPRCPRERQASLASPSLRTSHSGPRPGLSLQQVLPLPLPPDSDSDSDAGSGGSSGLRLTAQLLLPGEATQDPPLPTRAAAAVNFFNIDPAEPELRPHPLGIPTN

[22] = molecular target: D(1A) dopamine receptor (Homo sapiens) (UniProt P21728); details: Compound concentration 10.0 uM
[23] = molecular target: T2, 5-hydroxytryptamine receptor 1A (Homo sapiens) (UniProt P08908); details: Compound concentration 10.0 uM
T2 sequence (whole entry): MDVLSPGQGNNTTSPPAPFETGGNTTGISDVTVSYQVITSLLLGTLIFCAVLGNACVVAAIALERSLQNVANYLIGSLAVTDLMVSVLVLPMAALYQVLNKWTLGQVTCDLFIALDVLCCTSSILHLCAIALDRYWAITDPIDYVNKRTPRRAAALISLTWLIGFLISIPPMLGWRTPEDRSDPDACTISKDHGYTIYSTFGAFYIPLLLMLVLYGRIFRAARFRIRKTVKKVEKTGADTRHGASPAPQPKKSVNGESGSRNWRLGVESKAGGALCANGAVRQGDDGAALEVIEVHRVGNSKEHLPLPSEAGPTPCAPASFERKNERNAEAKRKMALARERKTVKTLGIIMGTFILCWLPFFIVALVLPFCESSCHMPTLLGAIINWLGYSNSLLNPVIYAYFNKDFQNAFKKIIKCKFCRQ

Delta-type opioid receptor (Homo sapiens), sequence (P41143 whole entry): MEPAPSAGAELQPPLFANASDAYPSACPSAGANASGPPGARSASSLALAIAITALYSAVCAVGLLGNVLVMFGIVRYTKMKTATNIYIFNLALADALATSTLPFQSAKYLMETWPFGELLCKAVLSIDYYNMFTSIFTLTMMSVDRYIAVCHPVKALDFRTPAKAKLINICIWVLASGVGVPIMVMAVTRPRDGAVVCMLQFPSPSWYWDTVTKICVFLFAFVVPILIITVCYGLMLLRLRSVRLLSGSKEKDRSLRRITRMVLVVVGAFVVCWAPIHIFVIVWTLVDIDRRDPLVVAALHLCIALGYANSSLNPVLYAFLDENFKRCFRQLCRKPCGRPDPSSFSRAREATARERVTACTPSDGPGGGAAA
Alpha-2C adrenergic receptor (Homo sapiens), sequence (P18825 whole entry): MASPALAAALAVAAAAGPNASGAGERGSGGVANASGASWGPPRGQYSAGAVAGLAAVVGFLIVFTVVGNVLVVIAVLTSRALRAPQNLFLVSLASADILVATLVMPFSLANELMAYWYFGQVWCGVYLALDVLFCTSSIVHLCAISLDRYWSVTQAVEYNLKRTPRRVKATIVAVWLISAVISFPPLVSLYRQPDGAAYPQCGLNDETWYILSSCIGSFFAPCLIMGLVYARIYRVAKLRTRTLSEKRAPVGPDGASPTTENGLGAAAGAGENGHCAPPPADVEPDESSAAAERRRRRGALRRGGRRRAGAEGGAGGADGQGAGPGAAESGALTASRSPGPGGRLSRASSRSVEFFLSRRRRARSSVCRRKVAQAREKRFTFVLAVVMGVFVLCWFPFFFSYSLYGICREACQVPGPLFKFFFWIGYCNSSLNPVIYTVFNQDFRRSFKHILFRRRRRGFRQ
Kappa-type opioid receptor (Homo sapiens), sequence (P41145 whole entry): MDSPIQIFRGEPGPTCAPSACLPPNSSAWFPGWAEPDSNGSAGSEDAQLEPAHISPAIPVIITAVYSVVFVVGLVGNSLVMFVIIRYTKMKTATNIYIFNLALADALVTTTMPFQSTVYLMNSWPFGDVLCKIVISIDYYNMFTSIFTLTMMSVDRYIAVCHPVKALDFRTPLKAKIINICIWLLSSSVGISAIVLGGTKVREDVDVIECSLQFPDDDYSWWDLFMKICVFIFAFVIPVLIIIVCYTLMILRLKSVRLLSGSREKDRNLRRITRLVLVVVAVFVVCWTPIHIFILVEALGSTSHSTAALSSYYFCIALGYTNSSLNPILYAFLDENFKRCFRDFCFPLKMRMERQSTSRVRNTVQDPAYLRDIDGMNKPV

inhibition [1] | inhibition [2] | inhibition [9] | inhibition [16] | inhibition [17] | Compound | residual activity [4] | residual activity [5] | residual activity [6] | activity at 10 µM [8] | residual activity [13] | residual activity [14] | further results
2.05% | -0.06% | -2.24% | 6.74% | -6.46% | CCn1c(=O)c(C)cn(Cc2nnc(-c3ccc(F)c(OC)c3F)s2)c1=O | 107% | 88% | 45% | 88% (not active) | 64% | 92% | inhibition [3]: 11.7%; Ki [7]: > 10 µM (not active); activity at 10 µM (hERG (KCNH2)): 100% (not active); inhibition [10]: -5.43%; inhibition [11]: 6.43%; inhibition [12]: -1.07%; IC50 [15]: > 10 µM (not active); activity at 10 µM (MAO-A): 88% (not active)
1.31% | 9.87% | 7.03% | -4.71% | 8.17% | CCn1c(=O)c(C)cn(Cc2nnc(-c3ccc(F)c(O)c3F)s2)c1=O | 105% | 96% | 83% | 73% (not active) | 68% | 88% | inhibition [18]: -2.66%; inhibition [19]: 5.93%; inhibition [20]: -2.92%; inhibition [21]: 0.69%; inhibition [22]: -6.39%; inhibition [23]: 29.3%
